Source: patent publication US20070077583A1, “Alpha enolase-directed diagnostics and therapeutics for cancer and chemotherapeutic drug resistance” (Aurelium BioPharma, Inc., priority 2005, published 2007)
Entries after “also recorded” stand apart in the source; their conditions may differ.

What was measured:
H460 cells = assay: MTT cytotoxicity assay, H460 cells transfected with α-enolase siRNA; format: cell-based, human
Procedure: To establish the effectiveness of α-enolase silencing on other cancer cell types, H460 non-small cell lung cancer cells were challenged with a chemotherapeutic drug, MTT cytotoxicity assays were carried out and survival curves plotted as shown in FIG. 17.

SW-480 cells = assay: cells; format: cell-based, human
Procedure: The colorectal adenocarcinoma cell line SW-480 was treated with α-enolase-directed siRNA using the procedures described above.

MCF-7 cells [1] = assay: Clonogenic assay, MCF-7 cells; format: cell-based, human; settings: adriamycin-resistant MCF-7 cells, without drug
Procedure: Utilizing a clonogenic assay generated additional information concerning cell viability after drug-resistant cells were exposed to siRNA and chemotherapeutics. […] Taxol or Vincristine was added at IC10 or IC50 concentrations determined from MTT experiments for MCF-7 cells. […] The cells were further incubated for an additional 7 days. At the end of the incubation, the cells were stained with addition of a 0.5% Methylene Blue solution in 50% ethanol for 15 min. at RT. The staining solution was then removed and plates were dried overnight. The plates were scanned and the stained colonies were solubilized in 0.1% SDS. The absorbance of the resulting solution was determined by spectrophotometry at 660 nm.

[2] = tested on: MCF-7 and MDA-231 breast cancer cells; assay: BrdU incorporation cell proliferation assay, MCF-7 and MDA-231; format: cell-based, human; settings: MCF-7 and MDA-231 cells
Procedure: A determinant of cell division and viability, pre-requisites for angiogenesis, was assayed by BrdU incorporation in two breast cancer cell lines.

[3] = tested on: MDA-435 breast cancer cells; assay: BrdU incorporation DNA synthesis, MDA-435; format: cell-based, human; settings: MDA-435 cells
Text: (§1) The effect of Eno-1 siRNA silencing on tumor cell growth was even more dramatic in the MDA-435 breast cancer cells, where the viability in cells that were transfected with Eno-1 siRNA dropped to only about 17% of the control level (FIG. 40). In these cells the levels of silencing of α-enolase were also quite high, reaching 14% of the α-enolase levels present in the control transfected cells 6 days post-transfection (FIG. 41).

A549 cells [4] = assay: Cell adhesion assay on collagen-coated plates; format: cell-based, human; settings: A549 cells vs normal α-enolase levels
Procedure: Cell adhesion assays were performed using an MTT-based cell assay, as described in FIGS. 8C and 8D. […] The attachment of cells to the surface of the well was counted and a proportion of cells that attached to the surface during the experimental period was determined.

HUVEC cells = assay: HUVEC capillary tube formation on Matrigel; format: cell-based
Procedure: Transfected cells were then subjected to an angiogenesis assay to determine the effect of α-enolase on capillary tube formation. Briefly, Matrigel-coated 24-well culture plates (BD Biosciences, Rockville, Md.) were thawed at 4° C. overnight. The Matrigel was allowed to solidify for 1 hr at 37° C. α-enolase-1-directed siRNA or control siRNA silenced HUVEC cells were subsequently seeded onto the Matrigel-coated wells at a density of 40,000 cells per well in the absence of endothelial cell growth factors. Taxol was added to selected wells at 2 nM final concentration. The cells were allowed to differentiate overnight at 37° C., and were photographed after 5-6 and 16 hours using Q-Capture software under an Olympus fluorescence microscope.

MCF-7 cells [5] = assay: Annexin-V apoptosis assay, MCF-7; format: cell-based, human; settings: MCF-7 cells vs control siRNA
Procedure: (§2) Apoptotic cells were measured following incubation with siRNAs. This assay was performed to determine the number of cells that were now susceptible to chemotherapeutic drugs. Cells transfected with siRNA were seeded in Lab-Tek 16-well chamber slides (Electron Microscopy Sciences, Hatfield, Pa.) at 10^4 cells/well 48 hrs post-transfection. Apoptosis was determined 16 hours later by annexin-V staining using the Annexin-V FLUOS kit (Roche, Ltd., Basel, CH) following the manufacturer's instructions. Slides were observed under a fluorescence microscope and images were taken using an Olympus digital camera and the Q-Capture software (QImaging, Burnaby, BC, CA).

MDA-435 cells = assay: Annexin-V FITC staining, MDA-435; format: cell-based, human
Procedure: as §1, §2

[6] = tested on: Detroit skin, Hfl fetal lung, and MRC-5 fetal lung fibroblast cell lines; assay: MTT survival of normal fibroblast cells after α-enolase silencing; format: cell-based; settings: relative to mock or control siRNA
Procedure: Detroit skin, Hfl fetal lung, and MRC-5 fetal lung fibroblast cell lines were treated with α-enolase-targeted siRNA as described in Example 5.

A549 cells [7] = assay: MTT cytotoxicity assay, A549 cells transfected with α-enolase siRNA; settings: A549 cells
Procedure: Small interfering RNA transfected cells were seeded in triplicate into 96-well plates at 5×10^3 cells/well 48 hrs post-transfection. The cells were incubated for an additional 16-24 hrs before they were exposed to increasing concentrations of cytotoxic drugs. […] Appropriate dilutions were made in the respective media for each cell line. Following addition of drugs, incubation was continued for an additional 72 hrs. Twenty-five ml of MTT dye (5 mg/ml) were added into each well and the plate was further incubated at 37° C. for 4 hrs. The dye was solubilized with 10% Triton X-100, 0.01 N HCl and further incubated at 37° C. in the dark for 30 min. Cell viability was determined by measure of absorption at 570 nm in a Wallac multiwell plate reader (PerkinElmer, Inc., Boston, Mass.). The averages of triplicate wells were plotted using the Prism software (GraphPad Software, Inc., San Diego, Calif.).
To investigate if α-enolase is broadly involved in mediating drug resistance to microtubule targeting agents, non-small cell lung cancer cell lines A549 and H460, respectively, were transfected with α-enolase siRNA and enolase expression and viability were assessed.

α-enolase siRNA: siRNA duplex targeting human α-enolase mRNA; sense 5′-GGCUGUUGAGCACAUCAAUtt-3′ (SEQ ID NO: 1), antisense SEQ ID NO: 2; Ambion (antisense AUUGAUGUGCUCAACAGCC; bought from Ambion, sense has tt overhang, further chemistry not given here)
cell viability after siRNA alone (H460 cells): less viable | decrease in cell viability (SW-480 cells): 50% | viability less than that of siRNA untreated cells (MCF-7 cells [1]): 65% | decrease in cell proliferation rates (BrdU) [2]: 40-50% | decrease in DNA synthesis [3]: 50% | increase of cell adhesion to collagen-coated plates (A549 cells [4]): 40% | capillary tube formation on Matrigel (HUVEC cells): inhibited from forming capillary tubes | Annexin-V positive cells (MCF-7 cells [5]): Annexin-V positive cells were detected; also recorded: substantial amount of Annexin-V-positive cells | apoptosis by annexin-V FITC staining (MDA-435 cells): increase in apoptosis | survival of normal fibroblast cells [6]: no effect on survival | cell viability after siRNA alone (A549 cells [7]): decreased the viability
